{
  "source": "patent US20040147567A1",
  "about": "“Arginine derivatives” (priority 2001, published 2004)",
  "biological_target": "T1, human MC4 receptor (Homo sapiens, UniProt P32245)",
  "T1 construct": "purchased Biolinks Co; host or cells: HEK-293 cell membranes",
  "T1 sequence (P32245 whole entry)": "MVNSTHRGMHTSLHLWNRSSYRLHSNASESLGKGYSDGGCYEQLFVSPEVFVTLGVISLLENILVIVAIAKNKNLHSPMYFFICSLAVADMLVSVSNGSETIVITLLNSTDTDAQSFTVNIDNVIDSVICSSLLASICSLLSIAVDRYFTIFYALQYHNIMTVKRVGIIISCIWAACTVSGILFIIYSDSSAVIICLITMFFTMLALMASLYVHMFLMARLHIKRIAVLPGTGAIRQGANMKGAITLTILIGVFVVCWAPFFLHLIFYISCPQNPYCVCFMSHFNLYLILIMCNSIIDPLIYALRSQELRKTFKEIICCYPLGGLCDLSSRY",
  "assay": "MC4 receptor binding assay ([125I]Nle4-D-Phe7-α-MSH displacement)",
  "conditions": "HEK-293 cell membranes expressing the human MC4 receptor; [125I]Nle4-D-Phe7-α-MSH 0.2 nM; 25° C., 120 minutes",
  "experimental": "Experiment 1 [MC4 Receptor Binding Assay]\nMC4 receptor binding assay was carried out according to the method described in Pharmacology & Toxicology, 79, 161-165, 1996. HEK-293 cell membranes expressing the human MC4 receptor were purchased from Biolinks Co. The cell membranes were homogenized in a 50 mM Tris hydrochloric acid buffer solution (pH 7.4) containing 2 mM ethylenediamine tetraacetic acid, 10 mM calcium chloride and 100 μM phenylmethanesulfonylfluoride. The homogenate was centrifuged at 48,000×g for 20 minutes at 4° C. The precipitate obtained by centrifugation was again homogenized in the same buffer solution, and the homogenate was centrifuged at 48,000×g for 20 minutes at 4° C. This procedure was repeated twice. The precipitate was suspended in 50 mM Tris hydrochloric acid buffer solution (pH 7.4) containing 2 mM ethylenediamine tetraacetic acid, 10 mM calcium chloride, 100 μM phenylmethanesulfonylfluoride and 0.1% bovine serum albumin to adjust to a protein concentration of 100 μg/ml to give a crude membrane preparation which was used for the binding assay. The crude membrane preparation (0.25 ml, 25 μg protein) was reacted with [^125I]Nle^4-D-Phe^7-α-MSH (final concentration; 0.2 nM) at 25° C. for 120 minutes. […] The radioactivity on the filter paper was measured in a gamma-counter. […] The IC50 value was calculated from the inhibition curve in the concentration of 10^−9-10^−5.",
  "data": [
    {"compound": "CC(=O)N[C@H](Cc1cccc2ccccc12)C(=O)N[C@@H](CCCNC(=N)N)C(=O)N[C@H](Cc1ccc2ccccc2c1)C(N)=O", "note": "[Compound 224]", "values": [
      {"measurement": "IC50", "value": 690, "unit": "nM"}
    ]}
  ]
}
